Results published in patent US8853228B2, “Heterocyclic analogs of propargyl-linked inhibitors of dihydrofolate reductase” (University of Connecticut, priority 2011, dated 2014).
Converted amounts (≈) assume the structure as drawn. Where two headings read alike, the source gives them in different places.

How the values were obtained:
CgDHFR = CgDHFR (Candida glabrata (strain ATCC 2001 / BCRC 20586 / JCM 3761 / NBRC 0622 / NRRL Y-65 / CBS 138) (Yeast) (Nakaseomyces glabratus), UniProt Q6FPH0); test: biochemical
Excerpt: CgDHFR: The gene coding CgDHFR was amplified by PCR from C. glabrata genomic DNA obtained from ATCC. The gene was inserted in a pET41 vector that includes a C-terminal histidine tag for nickel affinity chromatography. E. coli cells were transformed and the resulting plasmid was verified by sequencing. The protein was expressed in E. coli BL21(DE3) cells with isopropyl β-D-thiogalactoside induction. Following growth, the cells were lysed with BugBuster (Novagen) and centrifuged; the supernatant was loaded on a Ni-NTA column. The column was washed with 20 mM Tris (pH 8.0)/0.4 M NaCl and the protein was eluted using a gradient of 20 mM Tris (pH 8.0), 0.3 M NaCl, 20% glycerol, 0.1 mM EDTA, 2 mM DTT, 250 mM imidazole. Fractions containing CgDHFR were identified by SDS-PAGE, combined and desalted using a PD-10 column with a buffer containing 20 mM Tris pH 8.0, 20% glycerol, 0.1 mM EDTA and 2 mM DTT. The protein was concentrated to 13 mg/mL.
(§1) Enzyme and inhibitor were allowed to incubate for 5 min before adding dihydrofolate to initiate the reaction. Enzyme assays were performed at least four times. IC50 values and their standard deviations were calculated in the presence of varying concentrations of inhibitor near the IC50 concentration.

Streptococcus pyogenes = test: Antibacterial MIC, broth microdilution with Alamar Blue; type: cell-based; conditions: for MIC S. pyogenes: Table 6; for Selectivity S. pyogenes: IC50 (MCF10)/MIC (pathogen)
Description: (§2) For susceptibility testing, 10 μL of glycerol stock was suspended in a 10 mL shake flask culture of chemically defined Isosensitest broth (Oxoid) supplemented with 2% w/v glucose. A sample of the shake flask culture was diluted to 1×10^6 cells/mL in media and added to 96-well test plates (100 μL per well) containing test compounds dispensed in DMSO (2 μL). After an incubation period (30° C.) determined from the strain specific doubling time, a 0.03% w/v aqueous solution of resazurin (10 μL) was added and the plates were allowed to incubate; each well was then scored for dye reduction.

S. aureus DHFR = S. aureus DHFR (Staphylococcus aureus, UniProt P0A017); type: biochemical; conditions: for IC50: average of at least three measurements; for Selectivity (h/Sa): IC50 (human)/IC50 (pathogen)
Description: (§3) Enzyme inhibition assays were performed by monitoring the rate of NADPH oxidation by the DHFR enzyme at an absorbance of 340 nm. Assays were performed in the presence of saturating concentrations of NADPH and initiated with dihydrofolate. All assays were completed at 25° C. in a buffer containing 20 mM TES pH 7.0, 50 mM KCl, 10 mM 2-mercaptoethanol, 0.5 mM EDTA and 1 mg/mL BSA. Inhibition was measured at least three times with inhibitor concentrations near the IC50 value and the average IC50 value is reported with a standard deviation.

HepG2 cells = test: Mammalian cell toxicity, HepG2; type: cell-based; conditions: cytotoxicity
Description: (§4) Adherent cell lines were maintained in Eagle's Minimal Essential Media (Sigma-Aldrich, St. Louis, Mo., USA) with 2 mM glutamine and Earle's Balanced Salt Solution (HyClone, Logan, Utah, USA) adjusted to contain 1.5 g/L sodium bicarbonate, 0.1 mM non-essential amino acids, 1 mM sodium pyruvate and 10% fetal calf serum. Fetal calf serum used in these assays was lot matched throughout. […] Toxicity assays were conducted between passages 10-20. Target compound toxicity was measured by incubating the test compound with the cells for 4 h, washing the cells and finally treating the cells with Alamar Blue. After 12-24 h, the fluorescence of the reduced dye was measured. Fluorescence intensity as a function of test compound concentration was fit to the Fermi equation, using non-linear least squares regression analysis, to estimate IC50 values.

C. glabrata = test: Antifungal assay (MIC, Alamar Blue); type: cell-based, Candida glabrata; conditions: for MIC (Cg): YM media; for antifungal MIC C. glabrata: cell growth inhibition (Table 7 conditions)
Description: Antifungal assays were performed using C. glabrata as a suspension in 50% glycerol at −78° C. For susceptibility testing, a streak of stock culture was made on SDA agar and grown at 30° C. for 48 h. One pure colony of the test organism was recovered from the plate, suspended in appropriate media and grown in a 5 mL shake flask culture. A sample of the shake flask culture was diluted to 1×10^5 cells/mL in media and added to 96-well test plates (100 μL per well) containing test compounds dispensed in DMSO (1 μL). Amphotericin and ketoconazole were used as controls. After an incubation period determined from the strain specific doubling time, Alamar Blue (10 μL) was added, allowed to incubate; each well was scored for dye reduction.
Several representative compounds were also evaluated in thymidine-depleted media. It has been shown that high levels of thymidine interfere with accurate susceptibility testing of antifolates. To compensate for this, antifolates are frequently evaluated in a controlled minimal media with a low thymidine concentration. […] In addition, the compounds were also evaluated for mammalian cell toxicity using MCF-10 and HepG2 cell lines. Cellular selectivity is reported as the IC50 value for the MCF-10 human cell line divided by the MIC value (μg/mL) (Table 8).

MCF-10 cells = test: Mammalian cell toxicity, MCF-10; type: cell-based, human; conditions: cytotoxicity
Description: as §4

hDHFR = hDHFR (Homo sapiens (Human), UniProt P00374); test: hDHFR enzyme inhibition assay; type: biochemical
Description: hDHFR: The gene for hDHFR was amplified using PCR from cDNA obtained from ATCC. The gene was inserted in a pET41 vector with a C-terminal histidine tag for affinity chromatography. The resulting construct was verified by sequencing. The hDHFR protein was expressed in E. coli and purified using a nickel affinity column.
as §1, §3

S. aureus 13709 (MRSA) = test: Antibacterial MIC, broth microdilution with Alamar Blue; type: cell-based, Staphylococcus aureus; conditions: for MIC MRSA: Table 6; for Selectivity MRSA: IC50 (MCF10)/MIC (pathogen)
Description: as §2

S. pyogenes DHFR = S. pyogenes DHFR (Streptococcus pyogenes, UniProt Q9A091); test: S. pyogenes DHFR enzyme inhibition assay; type: biochemical; conditions: for IC50: average of at least three measurements; for Selectivity (h/Sp): IC50 (human)/IC50 (pathogen)
Description: as §3

TgDHFR = TgDHFR (Toxoplasma gondii, UniProt Q07422, DEL43-70); test: TgDHFR enzyme inhibition assay; type: biochemical
Description: These residues were removed, leaving a five residue loop region characteristic of several other species of DHFR.
as §1

ChDHFR-TS = ChDHFR-TS (Cryptosporidium hominis, UniProt Q27552); test: ChDHFR enzyme inhibition assay; type: biochemical
Description: as §1
Compounds were evaluated in spectrophotometric enzyme assays using ChDHFR-TS and hDHFR. Inhibition constants (IC50) were measured (see Table 4). […] The compound abbreviations in Table 4 refer to the following compounds: […]

[1] = Table 7, read-out: IC50 (CgDHFR)
[2] = Table 5, average of at least three measurements, read-out: IC50 human
[3] = Table 7, read-out: IC50 (hDHFR)

Sequence of ChDHFR-TS (Q27552 1-521): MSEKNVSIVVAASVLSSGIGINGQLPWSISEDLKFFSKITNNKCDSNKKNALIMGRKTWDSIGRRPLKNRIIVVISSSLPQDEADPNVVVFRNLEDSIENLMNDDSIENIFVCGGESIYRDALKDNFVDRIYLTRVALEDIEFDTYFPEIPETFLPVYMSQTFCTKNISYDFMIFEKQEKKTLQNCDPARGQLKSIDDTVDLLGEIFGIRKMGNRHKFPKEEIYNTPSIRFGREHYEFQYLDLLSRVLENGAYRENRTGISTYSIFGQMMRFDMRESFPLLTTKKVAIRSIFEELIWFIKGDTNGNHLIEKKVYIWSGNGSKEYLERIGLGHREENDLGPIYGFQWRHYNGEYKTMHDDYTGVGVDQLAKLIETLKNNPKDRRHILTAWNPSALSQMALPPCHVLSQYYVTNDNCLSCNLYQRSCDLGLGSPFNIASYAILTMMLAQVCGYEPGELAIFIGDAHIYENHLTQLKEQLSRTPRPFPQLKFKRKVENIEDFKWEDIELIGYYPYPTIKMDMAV
Sequence of hDHFR (P00374 whole entry): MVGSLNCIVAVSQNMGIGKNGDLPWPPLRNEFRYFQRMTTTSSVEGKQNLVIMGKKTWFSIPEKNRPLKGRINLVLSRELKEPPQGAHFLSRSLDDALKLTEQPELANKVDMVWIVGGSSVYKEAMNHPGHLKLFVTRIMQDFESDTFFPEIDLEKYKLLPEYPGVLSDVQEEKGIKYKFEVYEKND
Sequence of S. pyogenes DHFR (Q9A091 1-165): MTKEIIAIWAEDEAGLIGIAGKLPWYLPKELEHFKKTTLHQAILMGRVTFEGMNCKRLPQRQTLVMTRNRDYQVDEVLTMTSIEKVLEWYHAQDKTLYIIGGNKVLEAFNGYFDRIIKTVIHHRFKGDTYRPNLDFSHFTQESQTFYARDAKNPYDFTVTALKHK
Sequence of CgDHFR (Q6FPH0 1-217): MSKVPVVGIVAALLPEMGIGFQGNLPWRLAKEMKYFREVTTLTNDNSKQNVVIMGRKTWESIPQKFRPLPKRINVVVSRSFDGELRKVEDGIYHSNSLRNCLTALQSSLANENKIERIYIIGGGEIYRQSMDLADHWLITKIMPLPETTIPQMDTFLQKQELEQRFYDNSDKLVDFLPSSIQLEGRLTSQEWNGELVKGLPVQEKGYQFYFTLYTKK
Sequence of TgDHFR (Q07422 71-250, added parts left off, stated change not applied): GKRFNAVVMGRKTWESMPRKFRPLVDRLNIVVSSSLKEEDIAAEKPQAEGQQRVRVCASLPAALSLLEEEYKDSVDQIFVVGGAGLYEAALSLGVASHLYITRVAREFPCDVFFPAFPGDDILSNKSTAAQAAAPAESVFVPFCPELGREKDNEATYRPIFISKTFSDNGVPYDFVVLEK

| Compound | MIC S. pyogenes (Streptococcus pyogenes) [µg/mL] | IC50 (S. aureus DHFR) [nM] | IC50 (HepG2 cells; Table 6) [nM] | IC50 (MCF-10 cells; Table 6) [nM] | IC50 (hDHFR; [2]) [nM] | MIC MRSA (S. aureus 13709 (MRSA)) [µg/mL] | IC50 (S. pyogenes DHFR) [nM] | Selectivity S. pyogenes (Streptococcus pyogenes) | Selectivity (h/Sa) (S. aureus DHFR) | Selectivity MRSA (S. aureus 13709 (MRSA)) | Selectivity (h/Sp) (S. pyogenes DHFR) | IC50 (ChDHFR-TS; IC50 against ChDHFR) [nM] | other results |
| --- | --- | --- | --- | --- | --- | --- | --- | --- | --- | --- | --- | --- | --- |
| COc1cc(-c2ccncc2)cc(C(C)C#Cc2c(C)nc(N)nc2N)c1 (stereo not drawn) [Compound 147] | 0.012 (≈ 0.0334 µM) | 26 ± 2 | 233000 | 220000 | 1500 ± 8 | 0.09 (≈ 0.25 µM) | 160 ± 9 | – | – | – | – | – | IC50 (CgDHFR; [1]): 97 ± 9 nM; MIC (Cg) (C. glabrata; C. glabrata): 1.4 µg/mL (≈ 3.9 µM); antifungal MIC C. glabrata (C. glabrata): 1.4 to 1.5 µg/mL; IC50 (hDHFR; [3]): 1500 ± 83 nM |
| CCc1nc(N)nc(N)c1C#CCc1cccc(-c2ccncc2)c1 [Compound 151] | 0.04 (≈ 0.121 µM) | 20 ± 0.5 | > 500000 | 475000 | 520 ± 23 | 0.041 (≈ 0.124 µM) | 30 ± 1.7 | 11,875 | 26 | 11,585 | 17 | – | – |
| CCc1nc(N)nc(N)c1C#CCc1cc(OC)cc(-c2ccncc2)c1 [Compound 150] | 0.04 (≈ 0.111 µM) | 12 ± 2.4 | 465000 | 409000 | 61 ± 5.7 | 0.045 (≈ 0.125 µM) | 28 ± 4 | 10,225 | 5 | 9,089 | 2 | – | – |
| CCc1nc(N)nc(N)c1C#CC(C)c1cc(-c2ccccc2)ccc1OC (stereo not drawn) [Compound 146] | 0.08 (≈ 0.215 µM) | 67 ± 5.5 | 77000 | 54000 | 100 ± 10 | 0.744 (≈ 2 µM) | 26 ± 2.5 | 675 | 1.5 | 72 | 4 | – | – |
| COc1cc([C@H](C)C#Cc2c(C)nc(N)nc2N)cc(OC)c1OC [138(S), 2,4-Diamino-5-((S)-3-(3,4,5-trimethoxyphenyl)but-1-ynyl)-6-methylpyrimidine] | – | – | – | – | – | – | – | – | – | – | – | < 100000 | IC50 (TgDHFR): < 100000 nM |
| COc1cc(CC#Cc2cnc(N)nc2N)cc(OC)c1OC [Compound 1, 5-[3-(3,4,5-trimethoxyphenyl)prop-1-yn-1-yl]pyrimidine-2,4-diamine] | – | – | – | – | – | – | – | – | – | – | – | < 100000 | IC50 (CgDHFR; CgDHFR IC50, Table 3): 33 nM; IC50 (TgDHFR): < 100000 nM; Antifungal activity MIC (C. glabrata; C. glabrata, Inact: not active at 2 mM (~600 μg/mL)): Inact* |
| COc1cc([C@@H](C)C#Cc2c(C)nc(N)nc2N)cc(OC)c1OC [137(R), 2,4-Diamino-5-((R)-3-(3,4,5-trimethoxyphenyl)but-1-ynyl)-6-methylpyrimidine] | – | – | – | – | – | – | – | – | – | – | – | < 100000 | IC50 (TgDHFR): < 100000 nM |
| CCc1nc(N)nc(N)c1C#CC(C)c1cc(OC)cc(-c2ccncc2)c1 (stereo not drawn) [Compound 148] | 0.012 (≈ 0.0321 µM) | 19 ± 1 | 171000 | 85000 | 1300 ± 11 | 0.09 (≈ 0.241 µM) | 180 ± 19 | – | – | – | – | – | IC50 (CgDHFR; [1]): 89 ± 8 nM; IC50 (HepG2 cells; Table 8): 171000 nM; MIC (Cg) (C. glabrata; C. glabrata): 1.5 µg/mL (≈ 4.02 µM); MIC C. glabrata (C. glabrata; IsoSensitest media supplemented with 2% glucose (thymidine-depleted)): 0.36 µg/mL (≈ 0.964 µM); antifungal MIC C. glabrata (C. glabrata): 1.4 to 1.5 µg/mL; IC50 (MCF-10 cells; Table 8): 85000 nM; IC50 (hDHFR; [3]): 1300 ± 11 nM |
| CCc1nc(N)nc(N)c1C#CCc1cccc(-c2cccnc2)c1 [Compound 154] | 0.08 (≈ 0.243 µM) | 33 ± 0.5 | > 500000 | > 500000 | 290 ± 15 | 0.041 (≈ 0.124 µM) | 47 ± 4.6 | >20,000 | 9 | >20,000 | 6 | – | – |
| COc1cc([C@@H](C)C#Cc2c(C)nc(N)nc2N)cc(OC)c1OC (racemic) [Compound X, 6-methyl-5-[3-(3,4,5-trimethoxyphenyl)but-1-yn-1-yl]pyrimidine-2,4-diamine] | – | – | – | – | – | – | – | – | – | – | – | < 100000 | IC50 (CgDHFR; CgDHFR IC50, Table 3): 25 nM; IC50 (CgDHFR; IC50 against CgDHFR): ≤ 25 nM; IC50 (TgDHFR; read-out: IC50 against TgDHFR): < 100000 nM; MIC (C. glabrata; Nakaseomyces glabratus, C. glabrata, Inact: not active at 2 mM (~600 μg/mL), read-out: Antifungal activity MIC): 21 µg/mL (≈ 61.3 µM); antifungal properties against C. glabrata (C. glabrata; result in words): exhibited antifungal properties; IC50 (ChDHFR-TS; IC50 (ChDHFR), Table 4): 169 ± 6 nM; IC50 (ChDHFR-TS; read-out: IC50 against ChDHFR): 38 nM |
| COc1ccc(-c2ccccc2)cc1C(C)C#Cc1c(C)nc(N)nc1N (stereo not drawn) [Compound 145] | 0.04 (≈ 0.112 µM) | 75 ± 4 | 94000 | 38000 | 97 ± 10 | 0.716 (≈ 2 µM) | 23 ± 1.5 | 950 | 1.3 | 53 | 4 | – | – |
